# Activity calls are given as the source filed them. The calls are words filed in the database; no cut-off is given here.
# What was measured:
# Plasmodium falciparum [1] = assay: Antiplasmodial activity against multidrug resistant Plasmodium falciparum K1 incubated for 72 hrs by microplate reader assay; type: functional, organism-based; conditions: K1, 72 h
# [2] = Cytotoxicity against CHO cells measured after 48 hrs by MTT assay; conditions: Chinese hamster
# [3] = target: Voltage-gated inwardly rectifying potassium channel KCNH2 (Homo sapiens, UniProt Q12809); assay: Inhibition of human ERG expressed in CHO-K1 cells by Q-patch clamp assay
# [4] = Selectivity index, ratio of IC50 for Plasmodium falciparum NF54 to IC50 for CHO cells; conditions: hamster
# Hemozoin = assay: Inhibition of Beta-hematin in Plasmodium falciparum NF54 assessed as hemozoin formation after 36 hrs by flow cytometry analysis
# physchem = conditions: buffer, pH 7.4
# Plasmodium falciparum [5] = assay: microbe, parasite or virus in culture; conditions: NF54, 72 h
# Plasmodium falciparum [6] = assay: Antiplasmodial activity against early stage (I to III) Plasmodium falciparum incubated for 48 hrs by bioluminescence assay; type: functional, organism-based
# HepG2 = assay: Cytotoxicity against human HepG2 cells after 48 hrs by CellTiter Glo assay; type: toxicity, cell-based; conditions: hepg2, 48 h
# Plasmodium falciparum [7] = assay: Antiplasmodial activity against chloroquine sensitive Plasmodium falciparum NF54 infected in human erythrocytes incubated for 48 hrs followed by addition of [3H]-hypoxanthine and measured after 24 hrs by beta-plate liquid scintillation counting method; type: functional, organism-based
# Plasmodium falciparum [8] = assay: Antiplasmodial activity against multidrug resistant Plasmodium falciparum K1 infected in human erythrocytes incubated for 48 hrs followed by addition of [3H]-hypoxanthine and measured after 24 hrs by beta-plate liquid scintillation counting method; type: functional, organism-based
# Sequence of Voltage-gated inwardly rectifying potassium channel KCNH2 (Q12809 whole entry): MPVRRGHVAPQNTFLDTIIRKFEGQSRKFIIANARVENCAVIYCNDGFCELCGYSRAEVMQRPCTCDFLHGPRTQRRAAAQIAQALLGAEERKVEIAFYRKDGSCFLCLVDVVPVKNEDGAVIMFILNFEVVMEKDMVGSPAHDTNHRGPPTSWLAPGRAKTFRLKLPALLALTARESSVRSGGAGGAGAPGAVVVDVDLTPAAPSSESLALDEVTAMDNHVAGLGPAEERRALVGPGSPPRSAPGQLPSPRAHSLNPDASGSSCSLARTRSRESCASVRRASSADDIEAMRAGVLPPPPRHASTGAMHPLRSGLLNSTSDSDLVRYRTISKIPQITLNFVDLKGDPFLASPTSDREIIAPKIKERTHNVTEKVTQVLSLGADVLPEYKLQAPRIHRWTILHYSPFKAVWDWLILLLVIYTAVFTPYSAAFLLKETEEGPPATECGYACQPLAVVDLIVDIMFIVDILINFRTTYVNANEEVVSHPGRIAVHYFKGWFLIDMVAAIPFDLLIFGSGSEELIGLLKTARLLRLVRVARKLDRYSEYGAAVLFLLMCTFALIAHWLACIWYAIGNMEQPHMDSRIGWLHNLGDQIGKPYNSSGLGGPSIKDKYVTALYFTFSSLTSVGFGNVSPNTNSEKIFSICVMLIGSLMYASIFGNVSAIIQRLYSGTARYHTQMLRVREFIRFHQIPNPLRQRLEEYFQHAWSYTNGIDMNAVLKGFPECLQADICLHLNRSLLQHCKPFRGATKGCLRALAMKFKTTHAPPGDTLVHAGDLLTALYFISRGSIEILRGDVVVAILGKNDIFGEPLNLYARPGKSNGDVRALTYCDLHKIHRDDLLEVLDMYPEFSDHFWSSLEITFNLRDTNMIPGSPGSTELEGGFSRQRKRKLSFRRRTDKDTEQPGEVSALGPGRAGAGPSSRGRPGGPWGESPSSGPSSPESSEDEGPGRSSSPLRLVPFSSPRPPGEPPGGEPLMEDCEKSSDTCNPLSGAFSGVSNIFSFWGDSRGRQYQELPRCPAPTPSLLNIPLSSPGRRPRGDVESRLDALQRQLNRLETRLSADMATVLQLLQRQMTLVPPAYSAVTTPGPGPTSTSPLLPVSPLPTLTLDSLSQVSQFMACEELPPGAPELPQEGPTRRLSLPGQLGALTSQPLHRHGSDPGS
solubility kinetic at 2 h (physchem),IC50 (Plasmodium falciparum [5]),Compound,other results
80 µM,3990 nM,Cn1c(NC2CCN(CCc3ccc(C(=O)N4CCC(O)C4)cc3)CC2)nc2ccccc21 (stereo not drawn),–
60 µM,492 nM,CC(C)c1noc(-c2ccc(CCN3CCC(Nc4nc5ccccc5n4C)CC3)cc2)n1,–
120 µM,496 nM,COC(=O)c1ccc2c(c1)nc(NC1CCN(CCc3ccc(-c4nc(C)no4)cc3)CC1)n2C,IC50 [3]: 490 nM
100 µM,567 nM,Cn1c(NC2CCN(CCc3ccc(-c4nc(CO)no4)cc3)CC2)nc2ccccc21,–
80 µM,> 6000 nM,Cn1c(NC2CCN(CCc3ccc(C(=O)N4CCC(C)(O)C4)cc3)CC2)nc2ccccc21 (stereo not drawn),–
40 µM,422 nM,Cc1noc(-c2ccc(CCN3CCC(Nc4nc5cc(C(F)(F)F)ccc5n4C)CC3)cc2)n1,–
20 µM,460 nM,Cc1noc(-c2ccc(CCN3CCC(Nc4nc5ccccc5n4CC4CCC(F)(F)CC4)CC3)cc2)n1,–
60 µM,4650 nM,Cc1noc(-c2ccc(CCN3CCC(Nc4nc5cc(S(C)(=O)=O)ccc5n4C)CC3)cc2)n1,–
80 µM,383 nM,CSCc1noc(-c2ccc(CCN3CCC(Nc4nc5ccccc5n4C)CC3)cc2)n1,–
120 µM,4170 nM,Cn1c(NC2CCN(CCc3ccc(C(=O)NCCO)cc3)CC2)nc2ccccc21,–
20 µM,702 nM,Cc1noc(-c2ccc(CCN3CCC(Nc4nc5ccccc5n4C(C)C)CC3)cc2)n1,–
100 µM,> 6000 nM,Cn1c(NC2CCN(CCc3ccc(C(=O)NCCN)cc3)CC2)nc2ccccc21,–
120 µM,831 nM,CN(C)Cc1noc(-c2ccc(CCN3CCC(Nc4nc5ccccc5n4C)CC3)cc2)n1,–
40 µM,–,COc1ccc(CCN2CCC(Nc3nc4ccccc4n3Cc3ccc(F)cc3)CC2)cc1 [ASTEMIZOLE],Activity (HepG2): Non-Toxic
80 µM,> 6000 nM,Cn1c(NC2CCN(CCc3ccc(C(=O)N4CCOCC4)cc3)CC2)nc2ccccc21,–
80 µM,611 nM,Cc1noc(-c2ccc(CCN3CCC(Nc4nc5cc(C#N)ccc5n4C)CC3)cc2)n1,–
160 µM,> 6000 nM,Cc1noc(-c2ccc(CCN3CCC(Nc4nc5cc(C(=O)O)ccc5n4C)CC3)cc2)n1,–
80 µM,834 nM,Cc1noc(-c2ccc(CCN3CCC(Nc4nc5cc(F)ccc5n4C)CC3)cc2)n1,IC50 [3]: 28700 nM
60 µM,484 nM,Cn1c(NC2CCN(CCc3ccc(-c4nc(C5CC5)no4)cc3)CC2)nc2ccccc21,–
80 µM,309 nM,COc1ccc2c(c1)nc(NC1CCN(CCc3ccc(-c4nc(C)no4)cc3)CC1)n2C,–
120 µM,1450 nM,COC(=O)c1ccc(CCN2CCC(Nc3nc4ccccc4n3C)CC2)cc1,–
60 µM,1280 nM,Cn1c(NC2CCN(CCc3ccc(C(=O)N4CCN5CCCC5C4)cc3)CC2)nc2ccccc21 (stereo not drawn),–
80 µM,2610 nM,C=CCNC(=O)c1ccc(CCN2CCC(Nc3nc4ccccc4n3C)CC2)cc1,–
80 µM,720 nM,Cc1noc(-c2ccc(CCN3CCC(Nc4nc5cc(Br)ccc5n4C)CC3)cc2)n1,–

# The remaining lines, values behind:
Compound,solubility kinetic at 2 h (physchem),IC50 (Plasmodium falciparum [5]),other results
Cc1noc(-c2ccc(CCN3CCC(Nc4nc5ccccc5n4Cc4ccc(C(F)(F)F)nc4)CC3)cc2)n1,40 µM,44 nM,IC50 (Plasmodium falciparum [1]): 173 nM; IC50 at 48 h ([2]; CHO cells): 5630 nM; IC50 [3]: 250 nM; selectivity ratio [4]: 128; inhibition (Hemozoin): Active
N#Cc1ccc(Cn2c(NC3CCN(CCc4ccc(-c5noc(C(F)(F)F)n5)cc4)CC3)nc3ccccc32)cc1,20 µM,21 nM,IC50 (Plasmodium falciparum [1]): 49 nM; IC50 at 48 h ([2]; CHO cells): 3850 nM; selectivity ratio [4]: 175; inhibition (Hemozoin): Active
Cc1noc(-c2ccc(CCN3CC[C@H](Nc4nc5ccccc5n4Cc4ccc(C#N)cc4)C3)cc2)n1,–,515 nM,–
Cc1noc(-c2ccc(CCN3CCC(Nc4nc5cc(F)c(F)cc5n4C)CC3)cc2)n1,80 µM,1160 nM,–
CN(C)c1ccc2nc3ccc(N(C)C)cc3[s+]c2c1 [METHYLENE BLUE ANHYDROUS],–,–,IC50 (Plasmodium falciparum [6]): 200 nM
Cc1noc(-c2ccc(CCN3CCC(Nc4nc5ccccc5n4C)CC3)cc2)n1,160 µM,33 nM,IC50 (Plasmodium falciparum [1]): 82 nM; IC50 at 48 h ([2]; CHO cells): 9080 nM; IC50 [3]: 350 nM; selectivity ratio [4]: 275
Cc1noc(-c2ccc(CCN3CC4(CCN(c5nc6ccccc6n5Cc5ccc(C#N)cc5)C4)C3)cc2)n1,40 µM,446 nM,–
Cn1c(NC2CCN(CCc3ccc(-c4nc(C(C)(C)C)no4)cc3)CC2)nc2ccccc21,–,64 nM,IC50 (Plasmodium falciparum [1]): 300 nM; IC50 (Plasmodium falciparum [6]): 1180 nM; Activity (HepG2): Non-Toxic; IC50 at 48 h ([2]; cho): 4690 nM
NCCn1c(NC2CCN(CCc3ccc(-c4nc(C(F)(F)F)no4)cc3)CC2)nc2ccccc21,> 200 µM,–,IC50 (Plasmodium falciparum [7]): 90 nM; IC50 (Plasmodium falciparum [8]): 36 nM
Cn1c(NC2CCN(CCc3ccc(C(=O)O)cc3)CC2)nc2ccccc21,160 µM,> 6000 nM,–
Cc1noc(-c2ccc(CCN3CCC(Nc4nc5ccccc5n4CC4CCCCC4)CC3)cc2)n1,80 µM,93 nM,IC50 (Plasmodium falciparum [1]): 156 nM; IC50 at 48 h ([2]; CHO cells): 44400 nM; IC50 [3]: 890 nM; selectivity ratio [4]: 477
Cc1noc(-c2ccc(CCN3CCC(Nc4nc5ccccc5n4Cc4ccc(C(F)(F)F)cc4)CC3)cc2)n1,10 µM,30 nM,IC50 (Plasmodium falciparum [1]): 104 nM; IC50 at 48 h ([2]; CHO cells): 3330 nM; selectivity ratio [4]: 111
Cn1c(NC2CCN(CCc3ccc(C(=O)N4CCNCC4)cc3)CC2)nc2ccccc21,120 µM,3410 nM,IC50 [3]: > 30000 nM
Cc1nc(-c2ccc(CCN3CCC(Nc4nc5ccccc5n4Cc4ccc(C#N)cc4)CC3)cc2)no1,40 µM,51 nM,IC50 (Plasmodium falciparum [1]): 174 nM; IC50 at 48 h ([2]; CHO cells): 5870 nM; selectivity ratio [4]: 115
C[C@@H]1CN=C(c2ccc(CCN3CCC(Nc4nc5ccccc5n4Cc4ccc(C#N)cc4)CC3)cc2)O1,60 µM,104 nM,IC50 (Plasmodium falciparum [1]): 352 nM
C[C@H]1COC(c2ccc(CCN3CCC(Nc4nc5ccccc5n4Cc4ccc(C#N)cc4)CC3)cc2)=N1,20 µM,74 nM,IC50 (Plasmodium falciparum [1]): 263 nM; IC50 at 48 h ([2]; CHO cells): 38900 nM; selectivity ratio [4]: 525
Cn1c(NC2CCN(CCc3ccc(-c4nc(C(=O)O)no4)cc3)CC2)nc2ccccc21,120 µM,> 6000 nM,IC50 [3]: > 30000 nM
N#Cc1ccc(Cn2c(NC3CCN(CCc4ccc(-c5ncon5)cc4)CC3)nc3ccccc32)cc1,40 µM,89 nM,IC50 (Plasmodium falciparum [1]): 399 nM; IC50 at 48 h ([2]; CHO cells): 16600 nM; selectivity ratio [4]: 187
N#Cc1ccc(Cn2c(NC3CCN(CCc4ccc(-c5nc(C(F)(F)F)no5)cc4)CC3)nc3ccccc32)cc1,10 µM,22 nM,IC50 (Plasmodium falciparum [1]): 27 nM; IC50 at 48 h ([2]; CHO cells): 750 nM; IC50 [3]: 470 nM; selectivity ratio [4]: 34; inhibition (Hemozoin): Active
Cc1nnc(-c2ccc(CCN3CCC(Nc4nc5ccccc5n4Cc4ccc(C#N)cc4)CC3)cc2)o1,20 µM,519 nM,–
Cc1noc(-c2ccc(CCN3CCC(Nc4nc5ccccc5n4Cc4ccc(C#N)cc4)CC3)cc2)n1,–,97 nM,IC50 (Plasmodium falciparum [1]): 178 nM; IC50 at 48 h ([2]; cho): 19700 nM
Cc1noc(-c2ccc(CCN3CCC(Nc4nc5cc(Cl)c(Cl)cc5n4C)CC3)cc2)n1,80 µM,514 nM,–
Cn1c(NC2CCN(CCc3ccc(C(=O)NC4(CO)CC4)cc3)CC2)nc2ccccc21,60 µM,1730 nM,IC50 [3]: > 30000 nM
Cc1noc(-c2ccc(CCN3CC[C@@H](Nc4nc5ccccc5n4Cc4ccc(C#N)cc4)C3)cc2)n1,–,448 nM,–
CCN(CC)Cc1cc(Nc2ccnc3cc(Cl)ccc23)ccc1O [AMODIAQUINE],–,–,IC50 (Hemozoin): 10000 nM
Cc1noc(-c2ccc(CCN3CCC(Nc4nc5ccccc5n4Cc4cccnc4)CC3)cc2)n1,–,304 nM,–
Cc1noc(-c2ccc(CCN3CCC(Nc4nc5cc(C)c(C)cc5n4C)CC3)cc2)n1,60 µM,163 nM,–
CCN(CC)CCCC(C)Nc1ccnc2cc(Cl)ccc12 (stereo not drawn) [CHLOROQUINE],–,–,IC50 (Hemozoin): 22000 nM
